Experimental data taken from US20210100832A1, “INJECTABLE COMPOSITION FOR THE TREATMENT OF MUSCULOSKELETAL DISORDERS AND METHODS OF USE THEREOF” (Patchor Ltd., priority 2019, published 2021).

What was measured:
[1] = tested on: wistar rats with knee osteoarthritis (ACLT with MMx); assay: Weight bearing (incapacitance tester) in rat knee OA induced by ACLT with medial meniscectomy; assay type: in vivo; conditions: 150 microliters into the knee; 20 days post treatment (day 34); *p=0.0012, **p=0.0458; FIG. 2
Description: Induction of knee osteoarthritis was performed by an anterior cruciate ligament transaction (ACLT) with medial meniscectomy (MMx) on one leg of wistar rats while the contralateral knee served as self-control. After the procedure the animals were divided into three experimental groups of 7 animals per group. Control group was treated by injection of 150 microliters of 1% HA into the knee. Experimental groups were treated by injection of 150 microliters of either GR or GR-HA.
Formulation for dosing of control group was taken from commercial HA-1% viscosupplementation injection (Arthrease 1% sodium hyaluronate Lot R10008G, produced by Bio-Technology General). GR+HA was prepared by Patchor's standard procedures, as described in International Patent Publication No. WO 2009/150651 A1, of mixing HA with GM or with GR. All injections volume was 150 microliters. The positive control HA group was treated immediately post surgery and again at day 14 post surgery, and the HA−CM−GM was treated only once at day 14 post surgery. The experimental outcome was assessed by measuring weight bearing on the OA leg using an incapacitance tester.

[2] = tested on: wistar rats with knee osteoarthritis (ACLT with MMx); assay: Von Frey filament mechanical nociceptive threshold test in rat knee OA; assay type: in vivo
Description: As described in Example 3, OA was induced on one leg of wistar rats while the contralateral knee served as self-control. Thereafter, 14 rats were divided into two experimental groups. 7 were treated by injection of HA to the knee, as a positive control, and 7 were injected with GR. Injection volume was 150 microliters.
The experimental outcome was assessed using the Von Frey filament method for detection of mechanical nociceptive threshold test.

galectin-3 = galectin-3 (Homo sapiens, UniProt P17931); conditions: reference [8]; cited from earlier work
Sequence of galectin-3 (P17931 whole entry, species assumed): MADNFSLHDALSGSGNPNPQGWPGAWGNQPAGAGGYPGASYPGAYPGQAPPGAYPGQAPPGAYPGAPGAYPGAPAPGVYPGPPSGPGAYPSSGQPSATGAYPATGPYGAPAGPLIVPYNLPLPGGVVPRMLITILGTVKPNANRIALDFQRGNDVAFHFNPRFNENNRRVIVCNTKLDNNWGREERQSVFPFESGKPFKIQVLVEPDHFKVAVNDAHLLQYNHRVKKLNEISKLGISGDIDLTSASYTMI

| Substance | weight bearing ability on the operated OA leg compared to HA group [1] | pain response compared to control HA (Von Frey) ([2]; 150 microliters into OA knee, FIG. 3) | nociceptive threshold of OA leg versus control HA ([2]; 1 day post treatment, p=0.02) | nociceptive threshold of OA leg versus control HA ([2]; 19 days post treatment, p=0.007) | nociceptive reaction in the healthy legs, GR versus HA group ([2]; healthy contralateral legs, data not shown) | inhibition of galectin-3 (galectin-3) |
| --- | --- | --- | --- | --- | --- | --- |
| Galactoarabino-Rhamnogalacturonan [GR] | significant increase in weight bearing ability | significantly reduced pain response | significant reduction in nociceptive threshold | significant reduction in nociceptive threshold | No difference in nociceptive reaction | potent inhibitors of galectin-3 |
| Galactomannan [GM] | – | – | – | – | – | potent inhibitors of galectin-3 |
